Literature values as cited in patent US20140134693A1, “Eliminating the Need of Acidification in Bioethanol Production” (Anitox Corporation, priority 2012, published 2014).
Where two headings read alike, the source gives them in different places.

Columns and labels:
bacteria = settings: sugarcane ethanol production
[1] = tested on: Most bacteria, with the exception of Lactobacillus casei; settings: ethanol fermentation process
Lactobacillus [2] = tested on: Lactobacillus
Lactobacillus [3] = settings: 600 mg/L

Compound: virginiamycin
- bacteria resistant (bacteria): 48%

Compound: penicillin
- bacteria resistant (bacteria): 97%

Compound: CC1(C)S[C@@H]2[C@H](NC(=O)[C@H](N)c3ccccc3)C(=O)N2[C@H]1C(=O)O [ampicillin]
- bacteria resistant (bacteria): 97%

Compound: OO [hydrogen peroxide]
- concentration controlling bacteria [1]: 1 to 10 mM

Compound: NC(N)=O.OO [Urea hydrogen peroxide]
- bactericidal activity against Lactobacillus (in words) (Lactobacillus [2]): excellent bactericidal activity

Compound: O=C(O)CCC(=O)O [Succinic acid]
- reduction of Lactobacillus levels (Lactobacillus [3]): 78%
- reduction of Lactobacillus levels (Lactobacillus [3]; in the presence of ethanol): up to 96%
